Results taken from patent US6900244B2, “Anilino liver X-receptor modulators” (Pharmacia Corporation, priority 2002, dated 2005).

Structure (SMILES) | melting point [°C]
CCOC(=O)CC(C)Nc1ccc(C(O)(C(F)(F)F)C(F)(F)F)cc1 (centres unmarked) [Example 1, Ethyl 3-({4-[2,2,2-trifluoro-1-hydroxy-1-(trifluoromethyl)ethyl]phenyl}amino)-butanoate] | 103
CCOC(=O)C(C)(C)Nc1ccc(C(O)(C(F)(F)F)C(F)(F)F)cc1 [Example 3, Ethyl 2-methyl-N-{4-[2,2,2-trifluoro-1-hydroxy-1-(trifluoromethyl)ethyl]phenyl}-alaninate] | 93
CCOC(=O)CN(CC(F)(F)F)c1ccc(C(O)(C(F)(F)F)C(F)(F)F)cc1 [Example 5, Ethyl N-(2,2,2-trifluoroethyl)-N-{4-[2,2,2-trifluoro-1-hydroxy-1-(trifluoromethyl)-ethyl]phenyl}glycinate] | 67
CCOC(=O)CCN(C)c1ccc(C(O)(C(F)(F)F)C(F)(F)F)cc1 [Example 14, Ethyl N-methyl-N-{4-[2,2,2-trifluoro-1-hydroxy-1-(trifluoromethyl)ethyl]phenyl}-beta-alaninate] | 77
CCOC(=O)CN(Cc1ccccc1)c1ccc(C(O)(C(F)(F)F)C(F)(F)F)cc1 [Example 19, Ethyl N-benzyl-N-{4-[2,2,2-trifluoro-1-hydroxy-1-(trifluoromethyl)ethyl]-phenyl}glycinate] | 116
CCOC(=O)CN(Cc1ccccc1Cl)c1ccc(C(O)(C(F)(F)F)C(F)(F)F)cc1 [Example 21, Ethyl N-(2-chlorobenzyl)-N-{4-[2,2,2-trifluoro-1-hydroxy-1-(trifluoromethyl)ethyl]phenyl}glycinate] | 146
CCOC(=O)CN(Cc1cccnc1)c1ccc(C(O)(C(F)(F)F)C(F)(F)F)cc1 [Example 22, Ethyl N-(pyridin-3-ylmethyl)-N-{4-[2,2,2-trifluoro-1-hydroxy-1-(trifluoromethyl)ethyl]phenyl}glycinate] | 55
CCOC(=O)CN1CCCc2cc(C(O)(C(F)(F)F)C(F)(F)F)ccc21 [Example 31, Ethyl [6-[2,2,2-trifluoro-1-hydroxy-1-(trifluoromethyl)ethyl]-3,4-dihydroquinolin-1(2H)-yl]acetate] | 66.5
CON(C)C(=O)CN(C)c1ccc(C(O)(C(F)(F)F)C(F)(F)F)cc1 [Example 32, N˜1˜-Methoxy-N˜1˜N˜2˜-dimethyl-N˜2˜-{4-[2,2,2-trifluoro-1-hydroxy-1-(trifluoromethyl)ethyl]phenyl}glycinamide] | 121
CN(CC(=O)OCc1ccc(Cl)cc1)c1ccc(C(O)(C(F)(F)F)C(F)(F)F)cc1 [Example 35, 4-Chlorobenzyl N-methyl-N-{4-[2,2,2-trifluoro-1-hydroxy-1-(trifluoromethyl)-ethyl]phenyl}glycinate] | 66.5
CN(CC(=O)N1CCOCC1)c1ccc(C(O)(C(F)(F)F)C(F)(F)F)cc1 [Example 38] | 149
CN(CC(=O)N1CCCC1)c1ccc(C(O)(C(F)(F)F)C(F)(F)F)cc1 [Example 39] | 184
CCOC(=O)CN(Cc1ccc(Cl)cc1Cl)c1ccc(C(O)(C(F)(F)F)C(F)(F)F)cc1 [Example 40, Ethyl N-(2,4-dichlorobenzyl)-N-{4-[2,2,2-trifluoro-1-hydroxy-1-(trifluoromethyl)ethyl]phenyl}glycinate] | 111
CCOC(=O)CN(Cc1cccc(Cl)c1)c1ccc(C(O)(C(F)(F)F)C(F)(F)F)cc1 [Example 41, Ethyl N-(3-chlorobenzyl)-N-{4-[2,2,2-trifluoro-1-hydroxy-1-(trifluoromethyl)ethyl]phenyl}glycinate] | 81.5
CCOC(=O)CN(Cc1ccc(OC)cc1)c1ccc(C(O)(C(F)(F)F)C(F)(F)F)cc1 [Example 43, Ethyl N-(4-methoxybenzyl)-N-{4-[2,2,2-trifluoro-1-hydroxy-1-(trifluoromethyl)ethyl]phenyl}glycinate] | 68
CCOC(=O)C1(Nc2ccc(C(O)(C(F)(F)F)C(F)(F)F)cc2)CCC(C(C)(C)C)CC1 (centres unmarked) [Example 49, Ethyl 4-tert-butyl-1-({4-[2,2,2-trifluoro-1-hydroxy-1-(trifluoromethyl)ethyl]phenyl}amino)cyclohexanecarboxylate] | 107
CCOC(=O)C1(Nc2ccc(C(O)(C(F)(F)F)C(F)(F)F)cc2)CCC(C)CC1 (centres unmarked) [Example 50, Ehyl 4-methyl-1-({4-[2,2,2-trifluoro-1-hydroxy-1-(trifluoromethyl)ethyl]phenyl}amino)cyclohexanecarboxylate] | 142.6
